# Assay results as given in patent US9296723B2, “NAMPT inhibitors” (AbbVie Inc., priority 2012, dated 2016).
# Legend:
# NAMPT [1] = molecular target: T1, NAMPT (Homo sapiens, UniProt P43490); assay: Time-Resolved Fluorescence Resonance Energy Transfer (TR-FRET) Binding Assay of NAMPT; details: 6.8 nM NAMPT, 200 nM probe, equilibrated 3 hours, no substrates
# How it was run: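 Compound was mixed with enzyme, probe and antibody and equilibrated 3 h at room temperature. TR-FRET read at Ex 337 nm, Em 520/495 nm. Ratios were normalized to controls and fitted to a four-parameter logistic equation for IC50.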
# NAMPT [2] = molecular target: T1, NAMPT; assay: TR-FRET Binding Assay of NAMPT with PRPP; details: 2 nM NAMPT, 2 nM probe, 200 µM PRPP and 2.5 mM ATP, equilibrated 16 hours
# Description: Time-Resolved Fluorescence Resonance Energy Transfer (TR-FRET) Binding Assay of NAMPT with PRPP
# Compound handling and data processing were identical to the assay in the absence of substrates (above). Final concentrations were 1× assay buffer, 2% DMSO, 2 nM NAMPT, 2 nM probe, 1 nM Tb-anti-His antibody (Invitrogen #PV5895), 200 µM PRPP and 2.5 mM ATP. Reactions were equilibrated for 16 hours prior to measurement to allow for potential enzymatic modification of test compounds.
# PC3 cells = assay: NAMPT Cell Proliferation Assay (Cell Titer Glo); assay type: cell-based; details: Homo sapiens, PC-3, 120 h, incubated 5 days, cell viability
# How it was run: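 PC3 cells (500/well, RPMI with 10% heat-inactivated FBS) were exposed to 10-fold compound dilutions from […] for 5 days at 37 °C, 5% CO2. Viability was read with Cell Titer Glo; IC50 from sigmoidal fit of percent inhibition.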
# T1 sequence (P43490 whole entry): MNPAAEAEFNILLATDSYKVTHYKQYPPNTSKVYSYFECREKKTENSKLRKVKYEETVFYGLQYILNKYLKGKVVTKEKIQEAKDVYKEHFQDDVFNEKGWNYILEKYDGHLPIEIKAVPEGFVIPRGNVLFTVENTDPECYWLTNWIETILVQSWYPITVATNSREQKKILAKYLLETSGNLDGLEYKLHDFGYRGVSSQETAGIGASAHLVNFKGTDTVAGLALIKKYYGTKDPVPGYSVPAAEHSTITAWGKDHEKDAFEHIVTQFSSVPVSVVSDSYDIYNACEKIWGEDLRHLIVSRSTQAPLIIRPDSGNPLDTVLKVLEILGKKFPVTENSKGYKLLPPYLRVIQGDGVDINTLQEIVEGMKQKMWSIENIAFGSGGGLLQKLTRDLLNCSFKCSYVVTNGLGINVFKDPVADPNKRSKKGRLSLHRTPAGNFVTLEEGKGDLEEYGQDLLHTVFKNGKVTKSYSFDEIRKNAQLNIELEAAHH
SMILES,IC50 (NAMPT [1]),IC50 (NAMPT [2]),IC50 (PC3 cells)
"CC(C)(O)C(=O)N1CC(c2ccc(NC(=O)N3CC(c4cccnc4)C3)cc2)C1 [Example 106, N-{4-[1-(2-hydroxy-2-methylpropanoyl)azetidin-3-yl]phenyl}-3-(pyridin-3-yl)azetidine-1-carboxamide]",204 nM,0.553 nM,576 nM
"CC(C)(O)C(=O)N1CC(Oc2ccc(NC(=O)N3CC(c4cccnc4)C3)cc2)C1 [Example 30, N-(4-{[1-(2-hydroxy-2-methylpropanoyl)azetidin-3-yl]oxy}phenyl)-3-(pyridin-3-yl)azetidine-1-carboxamide]",69.4 nM,0.255 nM,125 nM
"CC(C)(O)C(=O)N1CCC(Oc2ccc(NC(=O)N3CC(c4cccnc4)C3)cc2)CC1 [Example 7, N-(4-{[1-(2-hydroxy-2-methylpropanoyl)piperidin-4-yl]oxy}phenyl)-3-(pyridin-3-yl)azetidine-1-carboxamide]",57.8 nM,0.344 nM,38.5 nM
"O=C(CN1CCCC1)N1CC(Oc2ccc(NC(=O)N3CC(c4cccnc4)C3)cc2)C1 [Example 155, 3-(pyridin-3-yl)-N-(4-{[1-(pyrrolidin-1-ylacetyl)azetidin-3-yl]oxy}phenyl)azetidine-1-carboxamide]",399 nM,0.425 nM,130 nM
"CC(C)(C)CCN1CC(c2ccc(NC(=O)N3CC(c4cccnc4)C3)cc2)C1 [Example 247, N-{4-[1-(3,3-dimethylbutyl)azetidin-3-yl]phenyl}-3-(pyridin-3-yl)azetidine-1-carboxamide]",871 nM,0.304 nM,471 nM
"O=C(CCN1CCOCC1)N1CCC(Oc2ccc(NC(=O)N3CC(c4cccnc4)C3)cc2)CC1 [Example 37, N-[4-({1-[3-(morpholin-4-yl)propanoyl]piperidin-4-yl}oxy)phenyl]-3-(pyridin-3-yl)azetidine-1-carboxamide]",85.4 nM,0.174 nM,72.9 nM
"CCCCC(=O)N1CC[C@@H](Oc2ccc(NC(=O)N3CC(c4cccnc4)C3)cc2)C1 [Example 297, N-(4-{[(3R)-1-pentanoylpyrrolidin-3-yl]oxy}phenyl)-3-(pyridin-3-yl)azetidine-1-carboxamide]",56.6 nM,0.236 nM,18.2 nM
"Cc1ccc(C2CN(C(=O)Nc3ccc(OC4CCN(C(=O)CC5CCOCC5)CC4)cc3)C2)cn1 [Example 8, 3-(6-methylpyridin-3-yl)-N-(4-{[1-(tetrahydro-2H-pyran-4-ylacetyl)piperidin-4-yl]oxy}phenyl)azetidine-1-carboxamide]",617 nM,15.4 nM,7030 nM
"CN1CCN(CC(=O)N2CCC(c3ccc(NC(=O)N4CC(c5cccnc5)C4)cc3)C2)CC1 (stereo not drawn) [Example 272, N-(4-{1-[(4-methylpiperazin-1-yl)acetyl]pyrrolidin-3-yl}phenyl)-3-(pyridin-3-yl)azetidine-1-carboxamide]",90.7 nM,0.241 nM,222 nM
"O=C(Nc1ccc(C2CCN(CC3CCOC3)CC2)cc1)N1CC(c2cccnc2)C1 (stereo not drawn) [Example 243, 3-(pyridin-3-yl)-N-{4-[1-(tetrahydrofuran-3-ylmethyl)piperidin-4-yl]phenyl}azetidine-1-carboxamide]",1270 nM,0.326 nM,1310 nM
"CCC(C)CN1CCC(c2ccc(NC(=O)N3CC(c4cccnc4)C3)cc2)CC1 (stereo not drawn) [Example 239, N-{4-[1-(2-methylbutyl)piperidin-4-yl]phenyl}-3-(pyridin-3-yl)azetidine-1-carboxamide]",1680 nM,0.2 nM,1510 nM
"O=C(Nc1ccc(C2CCN(C(=O)C3CCCCC3)C2)cc1)N1CC(c2cccnc2)C1 (stereo not drawn) [Example 293, N-{4-[1-(cyclohexylcarbonyl)pyrrolidin-3-yl]phenyl}-3-(pyridin-3-yl)azetidine-1-carboxamide]",56.6 nM,0.21 nM,70.5 nM

# The next compounds have a lower IC50 (NAMPT [1]) than those just listed; values first:
IC50 (NAMPT [1]),IC50 (NAMPT [2]),IC50 (PC3 cells),SMILES
54.2 nM,0.317 nM,28.3 nM,"O=C(CC(F)(F)F)N1CC(Oc2ccc(NC(=O)N3CC(c4cccnc4)C3)cc2)C1 [Example 134, 3-(pyridin-3-yl)-N-(4-{[1-(3,3,3-trifluoropropanoyl)azetidin-3-yl]oxy}phenyl)azetidine-1-carboxamide]"
43.8 nM,0.27 nM,100 nM,"CC(C)CCC(=O)N1CCC(Oc2ccc(NC(=O)N3CC(c4cccnc4)C3)cc2)CC1 [Example 42, N-(4-{[1-(4-methylpentanoyl)piperidin-4-yl]oxy}phenyl)-3-(pyridin-3-yl)azetidine-1-carboxamide]"
41.5 nM,0.25 nM,38.9 nM,"O=C(Nc1ccc(C2=CCN(C(=O)[C@H]3CCCO3)CC2)cc1)N1CC(c2cccnc2)C1 [Example 10, 3-(pyridine-3-yl)-N-(4-{1-[(2R)-tetrahydrofuran-2-ylcarbonyl]-1,2,3,6-tetrahydropyridin-4-yl}phenyl)azetidine-1-carboxamide]"
41.4 nM,0.194 nM,51 nM,"Cc1ccc(C(=O)N2CC[C@@H](Oc3ccc(NC(=O)N4CC(c5cccnc5)C4)cc3)C2)s1 [Example 323, N-[4-({(3R)-1-[(5-methylthiophen-2-yl)carbonyl]pyrrolidin-3-yl}oxy)phenyl]-3-(pyridin-3-yl)azetidine-1-carboxamide]"
32.5 nM,0.381 nM,33.7 nM,"CSCC(=O)N1CC=C(c2ccc(NC(=O)N3CC(c4cccnc4)C3)cc2)CC1 [Example 21, N-(4-{1-[(methylsulfanyl)acetyl]-1,2,3,6-tetrahydropyridin-4-yl}phenyl)-3-(pyridin-3-yl)azetidine-1-carboxamide]"
28.1 nM,0.376 nM,8.69 nM,"CC1(C(=O)N2CC(Oc3ccc(NC(=O)N4CC(c5cccnc5)C4)cc3)C2)CC1 [Example 135, N-[4-({1-[(1-methylcyclopropyl)carbonyl]azetidin-3-yl}oxy)phenyl]-3-(pyridin-3-yl)azetidine-1-carboxamide]"
15 nM,0.281 nM,64.6 nM,"O=C(CC1CCCC1)N1CCC(c2ccc(NC(=O)N3CC(c4cccnc4)C3)cc2)CC1 [Example 196, N-{4-[1-(cyclopentylacetyl)piperidin-4-yl]phenyl}-3-(pyridin-3-yl)azetidine-1-carboxamide]"
14.9 nM,0.375 nM,7.75 nM,"CC(C)CCC(=O)N1CC(Oc2ccc(NC(=O)N3CC(c4cccnc4)C3)cc2)C1 [Example 124, N-(4-{[1-(4-methylpentanoyl)azetidin-3-yl]oxy}phenyl)-3-(pyridin-3-yl)azetidine-1-carboxamide]"
5.65 nM,0.206 nM,34.5 nM,"CCCC(=O)N1CCC(c2ccc(NC(=O)N3CC(c4cccnc4)C3)cc2)CC1 [Example 172, N-[4-(1-butanoylpiperidin-4-yl)phenyl]-3-(pyridin-3-yl)azetidine-1-carboxamide]"
2.71 nM,0.237 nM,74.7 nM,"CC(C)(O)C(=O)N1CCC(c2ccc(NC(=O)N3CC(c4cccnc4F)C3)cc2)CC1 [Example 156, 3-(2-fluoropyridin-3-yl)-N-{4-[1-(2-hydroxy-2-methylpropanoyl)piperidin-4-yl]phenyl}azetidine-1-carboxamide]"
